Measured values from ChEMBL document CHEMBL1201862, “PubChem BioAssay data set” (2004).
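Interpolation was linear, between the two tested concentrations surrounding the appropriate level; five concentrations were tested over 48 hours in 96-well plates. Abbreviation: GI50, concentration required for 50% inhibition of growth.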 The source made the active and inactive calls. Rule as the data show it: active = GI50 up to about 1.1 µM and inactive = higher.

Columns and labels:
Test in all cases: DTP human tumour cell line panel, 48 h
SNB-19 = tested on: SNB-19
MDA-MB-231 = tested on: MDA-MB-231
OVCAR-4 = tested on: OVCAR-4
OVCAR-3 = tested on: OVCAR-3
DU-145 = tested on: DU-145
NCI-H226 = tested on: NCI-H226
SF-295 = tested on: SF-295
A549 = tested on: A549
Malme-3M = tested on: Malme-3M
U-251 = tested on: U-251
SW-620 = tested on: SW-620
SK-MEL-2 = tested on: SK-MEL-2
NCI-H460 = tested on: NCI-H460
CCRF-CEM = tested on: CCRF-CEM
IGROV-1 = tested on: IGROV-1
HOP-92 = tested on: HOP-92
NCI-H23 = tested on: NCI-H23
TK-10 = tested on: TK-10
SK-MEL-28 = tested on: SK-MEL-28
Hs-578T = tested on: Hs-578T

Row | Structure (SMILES) | GI50 (SNB-19) | GI50 (MDA-MB-231) | GI50 (OVCAR-4) | GI50 (OVCAR-3) | GI50 (DU-145) | GI50 (NCI-H226) | GI50 (SF-295) | GI50 (A549) | GI50 (Malme-3M) | GI50 (U-251) | GI50 (SW-620) | GI50 (SK-MEL-2) | GI50 (NCI-H460) | GI50 (CCRF-CEM) | GI50 (IGROV-1) | GI50 (HOP-92) | GI50 (NCI-H23) | GI50 (TK-10) | GI50 (SK-MEL-28) | GI50 (Hs-578T)
1 | COc1cc(/C=C2\CC3C4CC[C@H]5C[C@@H](O)CC[C@]5(C)C4CC[C@]3(C)\C2=N\O)cc(OC)c1OC (stereo not given in full) | 29.7 µM (inactive) | 14.3 µM (inactive) | 5.74 µM (inactive) | 3.27 µM (inactive) | 13.1 µM (inactive) | 10.8 µM (inactive) | 3.97 µM (inactive) | 7 µM (inactive) | 16.7 µM (inactive) | 10.6 µM (inactive) | 18.2 µM (inactive) | 11.7 µM (inactive) | 8.05 µM (inactive) | 6.47 µM (inactive) | 23 µM (inactive) | 15.2 µM (inactive) | 15.6 µM (inactive) | 16.8 µM (inactive) | 14.7 µM (inactive) | 8.3 µM (inactive)
2 | CN(C)c1ccc(Cc2cc3c(O)ccc(O)c3cc(Cc3ccc(N(C)C)cc3)c2=O)cc1 | 29.4 µM (inactive) | 20.1 µM (inactive) | 18.1 µM (inactive) | 14.3 µM (inactive) | 26.9 µM (inactive) | 24.7 µM (inactive) | 34.4 µM (inactive) | 30.5 µM (inactive) | 20.3 µM (inactive) | 20 µM (inactive) | 13.6 µM (inactive) | 36.6 µM (inactive) | 37.4 µM (inactive) | 2.96 µM (inactive) | 16.1 µM (inactive) | 3.08 µM (inactive) | 22.4 µM (inactive) | 18.6 µM (inactive) | 18.9 µM (inactive) | 44.3 µM (inactive)
3 | COC(=O)c1ccc2n1C1CC3CC(CC2C3)C1 | > 100 µM (inactive) | > 100 µM (inactive) | > 100 µM (inactive) | > 100 µM (inactive) | > 100 µM (inactive) | > 100 µM (inactive) | > 100 µM (inactive) | > 100 µM (inactive) | > 100 µM (inactive) | > 100 µM (inactive) | > 100 µM (inactive) | 70.6 µM (inactive) | > 100 µM (inactive) | > 100 µM (inactive) | > 100 µM (inactive) | 24.8 µM (inactive) | 90.8 µM (inactive) | > 100 µM (inactive) | > 100 µM (inactive) | 16.2 µM (inactive)
4 | CCOC(=O)C(=O)/C(=C/NC(=S)Nc1ccc(Cl)c(Cl)c1)C(=O)OCC | > 100 µM (inactive) | > 100 µM (inactive) | 88.7 µM (inactive) | 72.9 µM (inactive) | > 100 µM (inactive) | 56 µM (inactive) | > 100 µM (inactive) | > 100 µM (inactive) | > 100 µM (inactive) | > 100 µM (inactive) | 87.9 µM (inactive) | 69.2 µM (inactive) | > 100 µM (inactive) | 53.3 µM (inactive) | 85.9 µM (inactive) | 55.8 µM (inactive) | 70 µM (inactive) | > 100 µM (inactive) | > 100 µM (inactive) | 44.5 µM (inactive)
5 | Cc1c(C#N)c2nnn(-c3ccc([N+](=O)[O-])cc3)c(=O)n2c1-c1ccccc1 | 11.6 µM (inactive) | 17.3 µM (inactive) | 8.04 µM (inactive) | 3.03 µM (inactive) | 9.44 µM (inactive) | 12.6 µM (inactive) | 3.57 µM (inactive) | 10.1 µM (inactive) | 14.7 µM (inactive) | 4.26 µM (inactive) | 10.2 µM (inactive) | 9.57 µM (inactive) | 5.86 µM (inactive) | 5.98 µM (inactive) | 15.3 µM (inactive) | 8.05 µM (inactive) | 3.9 µM (inactive) | 20 µM (inactive) | 19.2 µM (inactive) | 25.5 µM (inactive)
6 | O=C(C1OC1c1cccc([N+](=O)[O-])c1)C12CC3CC(CC(C3)C1)C2 (stereo not given) | 8.13 µM (inactive) | 4.83 µM (inactive) | 4.27 µM (inactive) | 3.81 µM (inactive) | 13.8 µM (inactive) | 10.5 µM (inactive) | 6.11 µM (inactive) | 12.9 µM (inactive) | 13.7 µM (inactive) | 2.88 µM (inactive) | 2.97 µM (inactive) | 14.3 µM (inactive) | 4.06 µM (inactive) | 2.89 µM (inactive) | 6.53 µM (inactive) | 10.9 µM (inactive) | 5.74 µM (inactive) | 18.1 µM (inactive) | 12.3 µM (inactive) | 3.66 µM (inactive)
7 | O=C(CSCC(=O)N/N=C\c1ccc(F)cc1F)N/N=C\c1ccc(F)cc1F | > 100 µM (inactive) | > 100 µM (inactive) | > 100 µM (inactive) | > 100 µM (inactive) | > 100 µM (inactive) | > 100 µM (inactive) | > 100 µM (inactive) | > 100 µM (inactive) | > 100 µM (inactive) | > 100 µM (inactive) | > 100 µM (inactive) | > 100 µM (inactive) | > 100 µM (inactive) | > 100 µM (inactive) | > 100 µM (inactive) | > 100 µM (inactive) | > 100 µM (inactive) | > 100 µM (inactive) | > 100 µM (inactive) | > 100 µM (inactive)
8 | Cc1cc2c(=Cc3ccc(N(C)C)cc3)c3ccccc3n2[n+]1C | 0.415 µM (active) | 0.847 µM (active) | 0.641 µM (active) | 0.313 µM (active) | 0.713 µM (active) | 1.01 µM (active) | 1.05 µM (active) | 0.632 µM (active) | 1.08 µM (active) | 0.203 µM (active) | 1.21 µM (inactive) | 0.652 µM (active) | 0.393 µM (active) | 0.944 µM (active) | 1.52 µM (inactive) | 0.459 µM (active) | 0.497 µM (active) | 1.3 µM (inactive) | 1.2 µM (inactive) | 0.628 µM (active)
9 | CNC(=O)CC1NC(=O)c2csc(n2)-c2ccc(-c3nc(C4=NC(C(=O)N5CCCC5C(N)=O)CO4)cs3)nc2-c2csc(n2)-c2csc(n2)C(C(C)C)NC(=O)CNC(=O)c2csc(n2)C(C(C)C)NC(=O)c2nc1sc2C (stereo not given) | 0.043 µM (active) | 0.0153 µM (active) | 4.33 µM (inactive) | 0.00979 µM (active) | 0.0038 µM (active) | 0.00391 µM (active) | 0.021 µM (active) | 0.00724 µM (active) | > 25 µM (inactive) | 0.0025 µM (active) | 0.00962 µM (active) | 0.0155 µM (active) | 0.00194 µM (active) | 0.00527 µM (active) | 0.00175 µM (active) | 0.968 µM (active) | 0.00239 µM (active) | 0.0386 µM (active) | > 25 µM (inactive) | > 25 µM (inactive)
10 | COc1cc2c(SCCN(C)C)nc3ccccc3c2c2ccccc12 | 2.45 µM (inactive) | 2.25 µM (inactive) | 2.62 µM (inactive) | 2.34 µM (inactive) | 3.71 µM (inactive) | 1.94 µM (inactive) | 1.77 µM (inactive) | 1.77 µM (inactive) | 1.82 µM (inactive) | 1.87 µM (inactive) | 1.74 µM (inactive) | 1.87 µM (inactive) | 1.68 µM (inactive) | 0.281 µM (active) | 1.3 µM (inactive) | 1.73 µM (inactive) | 5.46 µM (inactive) | 2.7 µM (inactive) | 1.78 µM (inactive) | 2.13 µM (inactive)
11 | C[C@]12CC[C@@H]3c4ccc(OS(N)(=O)=O)cc4CC[C@H]3[C@@H]1CCC2=O [EMATE] | 73.3 µM (inactive) | 94 µM (inactive) | 57.7 µM (inactive) | 64 µM (inactive) | 42.7 µM (inactive) | 49.3 µM (inactive) | 36.4 µM (inactive) | 35 µM (inactive) | 45.6 µM (inactive) | 46.2 µM (inactive) | 44.6 µM (inactive) | 37.5 µM (inactive) | 31.6 µM (inactive) | 39 µM (inactive) | 28.7 µM (inactive) | > 100 µM (inactive) | 37.8 µM (inactive) | 59.6 µM (inactive) | 95.1 µM (inactive) | 10.5 µM (inactive)
12 | Cc1cc(/N=C/c2ccc(Cl)cc2)n(-c2ccccc2)n1 | 61.1 µM (inactive) | > 100 µM (inactive) | 33.4 µM (inactive) | 22.8 µM (inactive) | 50.9 µM (inactive) | 43.6 µM (inactive) | 30.8 µM (inactive) | 45.3 µM (inactive) | 49.3 µM (inactive) | > 100 µM (inactive) | 39.2 µM (inactive) | 53.5 µM (inactive) | 43.1 µM (inactive) | 26.5 µM (inactive) | 45.7 µM (inactive) | 48 µM (inactive) | 42 µM (inactive) | 40.3 µM (inactive) | 44.6 µM (inactive) | 58.7 µM (inactive)
